This test can be described thus: Comparison of hair serum compositions formulated with different crystalline CBDs (type A vs type B). As to conditions: hair serum according to Example 2, differing only in the crystalline CBD used. Here is the method:
Two hair serum compositions are prepared according to Example 2, the only difference being that the crystalline CBD used in the formulation is either of type A (needle-like crystals; FIG. 1) or type B (bunch/cluster-like; FIG. 2).
Type A crystalline CBD is sourced from Enecta, while type B CBD is sourced from Pharma Hemp.

For the molecule `C=C(C)[C@@H]1CCC(C)=C[C@H]1c1c(O)cc(CCCCC)cc1O` [type A CBD, Cannabidiol], the “Activity / potency of CBD in hair serum, type A versus type B” value is on record as “significantly more active than type B CBD”. In addition, the “Activity / potency of CBD in hair serum, type A versus type B” value (listed as crystal structure A) was “significantly more potent than CBD with a different crystal structure”.

The values above are taken from patent publication US20240189201A1, “HAIR SERUM AND SUPPLEMENT” (priority 2021, published 2024).
